Measurements as given in patent publication US20160250255A1, “METHODS FOR INDUCTION OF ANTIGEN-SPECIFIC REGULATORY T CELLS” (IMCYSE SA, priority 2013, published 2016).

How the values were obtained:
WEHI 231 cells = assay: Induction of apoptosis of B cell line WEHI 231 by peptide-expanded NKT cells; type: cell-based, BALB/c mice; conditions: WEHI 231 B cell line (H-2d) as APC; NKT cells elicited with the peptide; FIG. 3, means of 2 experiments and SEM
From the text: FIG. 3 depicts similar experiments (means of 2 experiments and SEM) but using a B cell line (WEHI 231 cells). WEHI cells are derived from BALB/c mice (H-2d) and not from C57BL/6 mice (H-2b). The histo-incompatibility between the 2 strains prevents presentation of peptides designed for C57BL/6 mice by BALB/c MHC class II, but not presentation by the non-polymorphic CD1d molecule. […] ID NO: 1 or SEQ. ID NO: 2.

dendritic cells = assay: Induction of apoptosis of peptide-loaded dendritic cells by peptide-expanded NKT cells (annexin V binding); type: cell-based, C57BL/6 mice; conditions: NKT cells expanded with the peptide; FIG. 1, means of 2 experiments and SEM; negative control dendritic cells with no peptides
Protocol: Antigen-presenting cells (APC) are prepared from C57BL/6 mice and loaded with a peptide encompassing a CD1d-restricted NKT cell peptide epitope of hexon-6 capsid protein of adenovirus 5 vector used for gene therapy or gene vaccination.
Dendritic cells loaded with one of these peptides are then incubated with naïve CD62L+ CD4+ cells obtained from the spleen. After several cycles of stimulation, the capacity of NKT cells to induce apoptosis of the corresponding APC is measured and a comparison is established between peptides for their capacity to induce apoptosis.
The results shown in FIG. 1 (means of 2 experiments and SEM) indicate that NKT cells expanded with peptide of either SEQ. ID NO: 1 or SEQ. […] Negative controls include dendritic cells incubated with no peptides.

APCs = assay: Capacity of NKT cells to induce apoptosis of APCs, peptide with modified CD1d binding motif; type: cell-based; conditions: W substituted at position P7 of the CD1d binding motif
Protocol: Modification of the core sequence of the CD1d binding motif is carried out by introducing a hydrophobic amino acid at position P7 of the motif and generates the peptide IAFRDN FIGLMYW [SEQ. ID NO: 3], in which W at position 7 increases the binding to the hydrophobic pocket of CD1d.

| Sequence | induction of apoptosis (WEHI 231 cells) | apoptosis of dendritic cells, as measured by annexin V binding (dendritic cells) | capacity of NKT cells to induce apoptosis of APCs (APCs) |
| --- | --- | --- | --- |
| CHGCGGFIGLMYY (redutase motif + hexon 6 capsid protein) [SEQ. ID NO: 2, residues 333 to 339 of the hexon-6 protein containing a thioreductase motif (CxxC) within flanking residues (GG)] | significant induction of apoptosis | elicit apoptosis of dendritic cells | – |
| IAFRDNFIGLMYW (modified version of hexon 6 capsid protein) [SEQ. ID NO: 3] | – | – | further boosts the capacity of NKT cells to induce apoptosis of APCs |
| IAFRDNFIGLMYY (fragment of hexon 6 capsis protein) [SEQ. ID NO: 1, amino acid residues 327 to 339 of the hexon-6 protein of adenovirus 5] | significant induction of apoptosis | elicit apoptosis of dendritic cells | – |
